The values below come from ChEMBL document CHEMBL3507680, “University of Dundee, Gates Library screen for HepG2 cell viability”.

The data set is described as follows: Human HepG2 cell viability assay in 384 well format. The class given is toxicity, cell-based. Details: dose 125 nL, time 70.5 hour; concentration not given beside the values. As to conditions: HepG2 cells, read-out: Inhibition.
For the compound `CCN(CC)Cc1ccc(C(=O)N2CCN(CC(C)O)CC2)o1` (configuration not stated), the cytotoxicity at 70.5 h is -5.77%.

Take `Cc1cc(CN(C)C(=O)c2ccc(Cl)c(N3CCCC3=O)c2)no1`: the cytotoxicity at 70.5 h turned out to be 28.1%.

In the case of `CN(CC(=O)N1CCCC1c1cnn(C)c1)Cc1ccccc1` (configuration not stated), the cytotoxicity at 70.5 h was -11.9%.

With `CC(Cn1cccn1)NCc1ccc(Cl)s1` (configuration not stated), the cytotoxicity at 70.5 h is -4.9%.

For the compound `Cc1ccc(S(=O)(=O)Nc2ccc(=O)n(C)c2)c(Br)c1`, the cytotoxicity at 70.5 h was 21.8%.

As to `COc1ccc2c(c1)CCN2Cc1nc2c(cnn2C)c(=O)[nH]1`, the cytotoxicity at 70.5 h was -9.79%.

With `CC(Cn1ccnc1)NC(=O)C1(c2ccccc2)CC1` (configuration not stated), the cytotoxicity at 70.5 h is -10.4%.

For the compound `NC(=O)c1ccc(CNC(=O)Nc2cn[nH]c2)cc1`, the cytotoxicity at 70.5 h stood at 16%.

For `Cc1cccc(C2(C(=O)NC(C)Cn3ccnc3)CC2)c1` (configuration not stated), the cytotoxicity at 70.5 h is -8.86%.

As for `CC(Cn1ccnc1)NC(=O)C1(c2cccc(Cl)c2)CC1` (configuration not stated), the cytotoxicity at 70.5 h is -1.52%.

As for `CNS(=O)(=O)Cc1cccc(CNC(=O)Nc2cn[nH]c2)c1`, the cytotoxicity at 70.5 h is -4.03%.

Take `COC(=O)c1ccc(N2CCN(C(=O)c3ccco3)C(C)C2)cc1` (configuration not stated): the cytotoxicity at 70.5 h was -3.57%.

For the compound `CC(NC(=O)N1CCC(n2cncn2)CC1)c1ccc(F)cc1` (configuration not stated), the cytotoxicity at 70.5 h is -6.99%.

Consider `Cn1cc(C2CCCN2C(=O)CCCOc2ccccc2F)cn1` (configuration not stated), for which the cytotoxicity at 70.5 h was -2.53%.

In the case of `Cc1nc2n(n1)CC(NCC(=O)Nc1cc(C)on1)CC2` (configuration not stated), the cytotoxicity at 70.5 h was -6.78%.

In the case of `COc1ccc(C2CCCN2Cc2nc3c(cnn3C)c(=O)[nH]2)cc1` (configuration not stated), the cytotoxicity at 70.5 h was -8.35%.

For `CCc1cnc(CN(C)C2CCN(CC(=O)Nc3nccs3)C2)o1` (configuration not stated), the cytotoxicity at 70.5 h is 23%.

Turning to `Cc1noc(CCCC(=O)N2CCCC2c2ccsc2)n1` (configuration not stated), the cytotoxicity at 70.5 h is -8.85%.

Turning to `Cn1ccnc1CN1CCCN(Cc2noc(C3CC3)n2)CC1`, the cytotoxicity at 70.5 h is -1.01%.

In the case of `O=C(Nc1ccncc1)C1=NN(c2ccccc2)C(=O)CN1`, the cytotoxicity at 70.5 h was -16.1%.

As to `O=C(Nc1ccccc1F)C1=NN(c2ccccc2)C(=O)CN1`, the cytotoxicity at 70.5 h is -4.94%.

As to `CCCc1noc(CCC(=O)N2CCCC2c2cccc(OC)c2)n1` (configuration not stated), the cytotoxicity at 70.5 h was -8.65%.

In the case of `O=C(CCc1nc(-c2ccccn2)no1)N1CCCC1c1ccsc1` (configuration not stated), the cytotoxicity at 70.5 h is -10.3%.

For the compound `Cc1ccccc1OCC(O)CN1CCC(c2ccn[nH]2)CC1` (configuration not stated), the cytotoxicity at 70.5 h is -4.42%.

Take `COc1ccc(COCC(O)CN2CCC(c3ccn[nH]3)CC2)cc1` (configuration not stated): the cytotoxicity at 70.5 h was -8.27%.

`CCc1nnc2n1CCN(C(=O)c1nc(-c3ccco3)sc1C)C2`: the cytotoxicity at 70.5 h was -6%.

On to `c1ncn(CC2CCCN(Cc3nc(-c4ccoc4)no3)C2)n1` (configuration not stated), for which the cytotoxicity at 70.5 h is -10.5%.

Consider `Cc1nn(C)c(C)c1C1CCCN1Cc1ccc(C(N)=O)cc1` (configuration not stated), for which the cytotoxicity at 70.5 h is -10.3%.

`Cc1cnn(CCNCC(O)COc2ccc(F)cc2)c1` (configuration not stated): the cytotoxicity at 70.5 h is -10.4%.

On to `CCc1noc(CN2CCN(C(=O)COC)CC2)n1`, for which the cytotoxicity at 70.5 h was 6.94%.

Turning to `Cc1cnn(CC2CCCN2C(=O)CN(C)C2CC2)c1` (configuration not stated), the cytotoxicity at 70.5 h was -11.8%.

Consider `CCN(CC)CC(=O)N1CCCC1Cn1cccn1` (configuration not stated), for which the cytotoxicity at 70.5 h was -4.89%.

Regarding `Cc1nn(C)c(C)c1C1CCCN1Cc1cccc(OCC(N)=O)c1` (configuration not stated), the cytotoxicity at 70.5 h was -7.47%.

Take `COc1c(C2CCCN2C(=O)c2c(C)noc2C(C)C)c(C)nn1C` (configuration not stated): the cytotoxicity at 70.5 h was -4.7%.

Turning to `Cn1ccnc1CC1CCCN(Cc2noc(C3CC3)n2)C1` (configuration not stated), the cytotoxicity at 70.5 h is -9.18%.

Regarding `CCOC(=O)c1ccc(S(=O)(=O)NCc2cccnc2N(C)C)cc1`, the cytotoxicity at 70.5 h is 34.2%.

`COc1c(C)cnc(CN2CCCC(Cn3nc(C)nc3C)C2)c1C` (configuration not stated): the cytotoxicity at 70.5 h was -3.59%.

As for `c1ncn(CC2CN(Cc3ccc4c(c3)OCCO4)CCO2)n1` (configuration not stated), the cytotoxicity at 70.5 h is -0.441%.

For `CCN(Cc1ccccc1)C(=O)CN1CCOC(Cn2cncn2)C1` (configuration not stated), the cytotoxicity at 70.5 h amounted to 5.38%.

In the case of `Cc1nnc(NC(=O)NCc2ccc(N3CCN(C)CC3)nc2)s1`, the cytotoxicity at 70.5 h is -24.8%.

Turning to `Cc1cccc(N2CCN(CCNC(=O)C(C)n3cncn3)CC2)c1` (configuration not stated), the cytotoxicity at 70.5 h is -6.98%.

Take `Cc1nnc(NC(=O)NCc2cc(F)cc(F)c2)s1`: the cytotoxicity at 70.5 h is -14.2%.

As for `Cc1ccc(C)n1-c1ccc(C(=O)NCCNc2ncccn2)cc1`, the cytotoxicity at 70.5 h was -7.02%.

As to `O=C(Cc1ccc2c(c1)CCC2)NCCNc1ncccn1`, the cytotoxicity at 70.5 h amounted to 10.9%.

As to `COc1ccc(C)cc1CN(C)Cc1nc2c(cnn2C)c(=O)[nH]1`, the cytotoxicity at 70.5 h is -7.21%.

For `Cc1cc(C)c(CNC(=O)N(C)Cc2sccc2C)c(=O)[nH]1`, the cytotoxicity at 70.5 h was -10.7%.

As to `CCOc1cccc(C(=O)N2CCN(c3nccc(OC)n3)CC2)c1`, the cytotoxicity at 70.5 h is 23.4%.

In the case of `CCOc1ccnc(N2CCN(C(=O)C(C)(C)C#N)CC2)n1`, the cytotoxicity at 70.5 h was -12.5%.

As for `CCN(Cc1ccccc1)C(=O)CN1CCCC(Cn2cncn2)C1` (configuration not stated), the cytotoxicity at 70.5 h was -4.31%.

Consider `CC(C)c1nnc2n1CCN(CC(=O)Nc1sccc1C#N)C2`, for which the cytotoxicity at 70.5 h was found to be 13.5%.

Turning to `Cc1nc(CN(C)C2CCN(Cc3nc4ccccc4s3)C2)no1` (configuration not stated), the cytotoxicity at 70.5 h is -8.96%.

On to `CCCOCC(=O)NS(=O)(=O)c1ccc2c(c1)OCCCO2`, for which the cytotoxicity at 70.5 h was 19.6%.

Turning to `COCCCC(=O)NS(=O)(=O)c1ccc2c(c1)OCCCO2`, the cytotoxicity at 70.5 h is -8.6%.

For `CN(Cc1ccc2c(c1)OCO2)Cc1nc2c(cnn2C)c(=O)[nH]1`, the cytotoxicity at 70.5 h amounted to 1.92%.

As to `CCc1ncncc1C(=O)N1CCCN(Cc2ccc(C)cc2)CC1`, the cytotoxicity at 70.5 h came out at 20.1%.

As for `Cc1cnn(CCNCC(=O)NCc2ccccc2)c1`, the cytotoxicity at 70.5 h was -12.3%.

On to `Cc1nc(CN(C)C2CCN(Cc3sc(C)nc3C)C2)no1` (configuration not stated), for which the cytotoxicity at 70.5 h is -7.02%.

As for `CN(Cc1ccco1)C(=O)CN1CCCC(Cn2cncn2)C1` (configuration not stated), the cytotoxicity at 70.5 h is -8.21%.

On to `Cc1nn(C)c(C)c1C1CCCN1C(=O)CCCn1cccn1` (configuration not stated), for which the cytotoxicity at 70.5 h was -14.1%.

As to `Cc1nc(CN2CCCN(CCOc3cccc(C#N)c3)CC2)no1`, the cytotoxicity at 70.5 h amounted to 38.4%.

With `c1ccc(Cn2cc(CNCC3CCCN3c3cccnn3)cn2)cc1` (configuration not stated), the cytotoxicity at 70.5 h was 3.57%.

On to `Cc1nc(C)n(CC2CN(Cc3cccnc3)CCO2)n1` (configuration not stated), for which the cytotoxicity at 70.5 h was -3.76%.

`Cc1nc(C)n(CC2CN(Cc3cccc4c3OCCO4)CCO2)n1` (configuration not stated): the cytotoxicity at 70.5 h was determined as 1.12%.

In the case of `Cc1cc(CN2CCCC2c2c(C)nn(C)c2Cl)no1` (configuration not stated), the cytotoxicity at 70.5 h is 4.73%.

Regarding `O=C(NCCc1ccsc1)Nc1cccnc1N1CCCC1`, the cytotoxicity at 70.5 h is 3.02%.

`O=C(CCNC(=O)C1CCCC1)NCc1cccnc1-n1cncn1`: the cytotoxicity at 70.5 h was -9.48%.

For the compound `Cc1noc(NC(=O)c2ccc(OC(F)(F)F)cc2)n1`, the cytotoxicity at 70.5 h turned out to be 55.7%.

Regarding `Cc1noc(NC(=O)c2ccc(Br)cc2)n1`, the cytotoxicity at 70.5 h stood at 48.3%.

As to `Cc1nc(-c2ccccc2)sc1C(=O)NCCNc1ncccn1`, the cytotoxicity at 70.5 h was determined as 1.41%.

Regarding `Cc1nccn1-c1cc(CNC(=O)CCNC(=O)C2CCCC2)ccn1`, the cytotoxicity at 70.5 h came to 2.73%.

For `Cc1ncsc1C(=O)NC1CCN(CC(=O)N(C)C(C)(C)C#N)CC1`, the cytotoxicity at 70.5 h came out at 28.1%.

For `CCN(Cc1ccco1)C(=O)Nc1cc(C(F)(F)F)c[nH]c1=O`, the cytotoxicity at 70.5 h was 11.4%.

With `OCCn1nccc1C1CCN(CCCOc2ccc(F)cc2)CC1`, the cytotoxicity at 70.5 h is -1.62%.

As for `Cc1cc(C)c(CNC(=O)NCC(c2ccccc2)N(C)C)c(=O)[nH]1` (configuration not stated), the cytotoxicity at 70.5 h came out at 7.25%.

For `O=C(c1ccc(N2CCCC2)nn1)N1CCCC(n2cccn2)C1` (configuration not stated), the cytotoxicity at 70.5 h is -1.11%.

`Cc1cc(C)n(CC2CN(CCOc3cccc(F)c3)CCO2)n1` (configuration not stated): the cytotoxicity at 70.5 h came to 1.51%.

For the compound `O=C(NCC1CC1)N1CCN(Cc2ccc3c(c2)OCCO3)CC1`, the cytotoxicity at 70.5 h is 2.86%.

As to `Cc1cnn(CC2CCCN2C(=O)c2cc(C)no2)c1` (configuration not stated), the cytotoxicity at 70.5 h worked out at 25.6%.

With `CN(C)CC1CN(CCOc2cccc(C#N)c2)CCO1` (configuration not stated), the cytotoxicity at 70.5 h turned out to be 0.102%.

Take `CCc1ncc2c(n1)CN(CC(=O)NCCOc1ccccc1)CC2`: the cytotoxicity at 70.5 h was -5.27%.

Take `c1ccc(-n2ncc(CNCC3CCCN3c3cccnn3)n2)cc1` (configuration not stated): the cytotoxicity at 70.5 h was 5.2%.

Consider `O=C1COc2cc(C(=O)NS(=O)(=O)c3ccccc3F)ccc2N1`, for which the cytotoxicity at 70.5 h came out at 21.7%.

As to `CC(NC(=O)CSCC(=O)Nc1ccccc1)c1ccccc1` (configuration not stated), the cytotoxicity at 70.5 h was -1.19%.

As to `CCN(CC1CCOC1)C(=O)c1ccccc1N1CCOCC1` (configuration not stated), the cytotoxicity at 70.5 h amounted to 18.7%.

Take `CC(C(=O)N1CCCN(c2ncccc2C#N)CC1)n1ccnc1` (configuration not stated): the cytotoxicity at 70.5 h is 21.6%.

For the compound `CC(C)CN(C)c1ccc(C(=O)N2CCCC2c2cnn(C)c2)cn1` (configuration not stated), the cytotoxicity at 70.5 h amounted to 21.8%.

Take `CSc1nccn1-c1cccc(C(=O)NCCCN2CCOCC2)c1`: the cytotoxicity at 70.5 h is 1.7%.

Take `Cc1nc2ccnn2c(C)c1CCC(=O)N1CCN(C2CC2)CC1`: the cytotoxicity at 70.5 h is 15.8%.

Take `COc1ccnc(N2CCN(C(=O)CN3CCCC3=O)CC2)n1`: the cytotoxicity at 70.5 h is 0.556%.

For `COC(=O)c1ccc(N2CCN(CCC(=O)NC(N)=O)C(C)C2)cc1` (configuration not stated), the cytotoxicity at 70.5 h was -6.28%.

For the compound `Cc1noc(Cl)c1CC(=O)N1CCCC(n2cccn2)C1` (configuration not stated), the cytotoxicity at 70.5 h was -4.55%.

With `Cn1ccnc1CN1CCN(Cc2ccccc2C#N)CC1`, the cytotoxicity at 70.5 h came to 6.78%.

With `Cc1nccn1C1CCCN(C(=O)c2ccc3c(c2)nnn3C)C1` (configuration not stated), the cytotoxicity at 70.5 h is -6.07%.

For `CCOCC(O)CN1CCN(C(=O)c2cnc3n[nH]c(C)c3c2)CC1` (configuration not stated), the cytotoxicity at 70.5 h was -2.39%.

For `CSc1nccn1-c1cccc(C(=O)NCc2nnc(C)n2C)c1`, the cytotoxicity at 70.5 h amounted to 6.07%.

As to `Cc1noc(C)c1CN1CCc2nn(C(C)C)c(=O)cc2C1`, the cytotoxicity at 70.5 h was 38.6%.

For the compound `Cc1nc2ccnn2c(C)c1CCC(=O)N1CCC(C(N)=O)CC1`, the cytotoxicity at 70.5 h was 2.4%.

`Cc1cnc2c(S(=O)(=O)NCC3CCN(C4CC4)C3)cccc2c1` (configuration not stated): the cytotoxicity at 70.5 h was -5.3%.

As for `CCN(CC)CCNC(=O)c1cnc(C(C)(C)C)s1`, the cytotoxicity at 70.5 h was -6.77%.

Take `CCc1ncc2c(n1)CN(Cc1nc(-c3ccsc3)no1)CC2`: the cytotoxicity at 70.5 h is -6.7%.

As to `Cc1nn(C)c(C)c1CC(=O)N1CCCC(n2ccnc2)C1` (configuration not stated), the cytotoxicity at 70.5 h was -3.37%.

`COc1ccc(CC(=O)N2CCCC2Cn2cccn2)cc1F` (configuration not stated): the cytotoxicity at 70.5 h is -9.94%.
